Results from the supplement of paper PMC10307832.

Experiments:
Experiment in all cases: relative viability (nuclei count vs DMSO), 5 days (fraction); higher = more cells survive
[1] = tested on: NCI-H1355
Outline: (§1)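 Relative viability was taken as the ratio of nuclei in treated wells to nuclei in vehicle wells. Lung cancer cell lines in 1536-well plates received compounds by pin tool one day after seeding, either one drug alone or a fixed anchor-drug dose plus five library-drug doses (not always all listed) in √10 steps. Nuclei were counted on 4× images after 5 days of treatment, and values are medians of duplicate plates.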

[2] = tested on: NCI-H520
Outline: as §1

[3] = tested on: CAL-12T
Outline: as §1

[4] = tested on: NCI-H1944
Outline: as §1

[5] = tested on: NCI-H322M
Outline: as §1

[6] = tested on: NCI-H661
Outline: as §1

[7] = tested on: LC-2-ad
Outline: as §1

[8] = tested on: NCI-H1651
Outline: as §1

[9] = tested on: NCI-H838
Outline: as §1

[10] = tested on: NCI-H1666
Outline: as §1

[11] = tested on: 201T
Outline: as §1

[12] = tested on: NCI-H2228
Outline: as §1

[13] = tested on: ChaGo-K-1
Outline: as §1

[14] = tested on: COR-L23
Outline: as §1

[15] = tested on: NCI-H1993
Outline: as §1

[16] = tested on: NCI-H1734
Outline: as §1

[17] = tested on: NCI-H2170
Outline: as §1

[18] = tested on: NCI-H2342
Outline: as §1

[19] = tested on: HOP-62
Outline: as §1

[20] = tested on: RERF-LC-KJ
Outline: as §1

[21] = tested on: NCI-H1395
Outline: as §1

[22] = tested on: NCI-H2085
Outline: as §1

## COCC1(CO)C(=O)C2CCN1CC2 (configuration not stated) [PRIMA-1MET] + Cc1nc(Nc2ncc(C(=O)Nc3c(C)cccc3Cl)s2)cc(N2CCN(CCO)CC2)n1 [Dasatinib] (partner 0.075 µM)
[1]; first compound 0.2 µM
  relative viability: 0.793
[1]; first compound 0.6325 µM
  relative viability: 0.571
[1]; first compound 2 µM
  relative viability: 0.785
[1]; first compound 6.325 µM
  relative viability: 0.766
[1]; first compound 20 µM
  relative viability: 0.657
[2]; first compound 0.2 µM
  relative viability: 0.203
[2]; first compound 0.6325 µM
  relative viability: 0.204
[2]; first compound 2 µM
  relative viability: 0.258
[2]; first compound 6.325 µM
  relative viability: 0.176
[2]; first compound 20 µM
  relative viability: 0.13
[3]; first compound 0.2 µM
  relative viability: 0.34
[3]; first compound 0.6325 µM
  relative viability: 0.341
[3]; first compound 2 µM
  relative viability: 0.456
[3]; first compound 6.325 µM
  relative viability: 0.364
[3]; first compound 20 µM
  relative viability: 0.0829
[4]; first compound 0.2 µM
  relative viability: 0.225
[4]; first compound 0.6325 µM
  relative viability: 0.19
[4]; first compound 2 µM
  relative viability: 0.213
[4]; first compound 6.325 µM
  relative viability: 0.219
[4]; first compound 20 µM
  relative viability: 0.232
[5]; first compound 0.2 µM
  relative viability: 0.265
[5]; first compound 0.6325 µM
  relative viability: 0.258
[5]; first compound 6.325 µM
  relative viability: 0.243
[5]; first compound 20 µM
  relative viability: 0.0311
[6]; first compound 0.2 µM
  relative viability: 0.858
[6]; first compound 0.6325 µM
  relative viability: 0.733
[6]; first compound 2 µM
  relative viability: 0.89
[6]; first compound 6.325 µM
  relative viability: 0.883
[6]; first compound 20 µM
  relative viability: 0.796
[7]; first compound 0.2 µM
  relative viability: 0.346
[7]; first compound 2 µM
  relative viability: 0.472
[7]; first compound 6.325 µM
  relative viability: 0.584
[7]; first compound 20 µM
  relative viability: 0.508
[8]; first compound 0.2 µM
  relative viability: 0.455
[8]; first compound 0.6325 µM
  relative viability: 0.468
[8]; first compound 2 µM
  relative viability: 0.423
[8]; first compound 6.325 µM
  relative viability: 0.415
[8]; first compound 20 µM
  relative viability: 0.432
[9]; first compound 0.2 µM
  relative viability: 0.31
[9]; first compound 0.6325 µM
  relative viability: 0.279
[9]; first compound 6.325 µM
  relative viability: 0.279
[9]; first compound 20 µM
  relative viability: 0.456
[10]; first compound 0.2 µM
  relative viability: 0.801
[10]; first compound 0.6325 µM
  relative viability: 0.79
[10]; first compound 2 µM
  relative viability: 0.807
[10]; first compound 6.325 µM
  relative viability: 0.846
[10]; first compound 20 µM
  relative viability: 0.639
[11]; first compound 0.2 µM
  relative viability: 0.635
[11]; first compound 0.6325 µM
  relative viability: 0.369
[11]; first compound 2 µM
  relative viability: 0.59
[11]; first compound 6.325 µM
  relative viability: 0.566
[11]; first compound 20 µM
  relative viability: 0.582
[12]; first compound 0.2 µM
  relative viability: 0.638
[12]; first compound 0.6325 µM
  relative viability: 0.399
[12]; first compound 2 µM
  relative viability: 0.541
[12]; first compound 6.325 µM
  relative viability: 0.392
[12]; first compound 20 µM
  relative viability: 0.0268
[13]; first compound 0.2 µM
  relative viability: 0.626
[13]; first compound 0.6325 µM
  relative viability: 0.567
[13]; first compound 2 µM
  relative viability: 0.687
[13]; first compound 6.325 µM
  relative viability: 0.54
[13]; first compound 20 µM
  relative viability: 0.363
[14]; first compound 0.2 µM
  relative viability: 0.508
[14]; first compound 0.6325 µM
  relative viability: 0.478
[14]; first compound 2 µM
  relative viability: 0.595
[14]; first compound 6.325 µM
  relative viability: 0.432
[14]; first compound 20 µM
  relative viability: 0.0161
[15]; first compound 0.2 µM
  relative viability: 0.596
[15]; first compound 0.6325 µM
  relative viability: 0.587
[15]; first compound 2 µM
  relative viability: 0.574
[15]; first compound 6.325 µM
  relative viability: 0.554
[15]; first compound 20 µM
  relative viability: 0.582
[16]; first compound 0.2 µM
  relative viability: 0.498
[16]; first compound 0.6325 µM
  relative viability: 0.303
[16]; first compound 2 µM
  relative viability: 0.426
[16]; first compound 6.325 µM
  relative viability: 0.384
[16]; first compound 20 µM
  relative viability: 0.0495
[17]; first compound 0.2 µM
  relative viability: 0.554
[17]; first compound 0.6325 µM
  relative viability: 0.46
[17]; first compound 2 µM
  relative viability: 0.497
[17]; first compound 6.325 µM
  relative viability: 0.604
[17]; first compound 20 µM
  relative viability: 0.586
[18]; first compound 0.2 µM
  relative viability: 0.327
[18]; first compound 0.6325 µM
  relative viability: 0.305
[18]; first compound 2 µM
  relative viability: 0.347
[18]; first compound 6.325 µM
  relative viability: 0.295
[18]; first compound 20 µM
  relative viability: 0.333
[19]; first compound 0.2 µM
  relative viability: 0.637
[19]; first compound 0.6325 µM
  relative viability: 0.7
[19]; first compound 2 µM
  relative viability: 0.628
[19]; first compound 6.325 µM
  relative viability: 0.658
[19]; first compound 20 µM
  relative viability: 0.582
[20]; first compound 0.2 µM
  relative viability: 0.759
[20]; first compound 0.6325 µM
  relative viability: 0.833
[20]; first compound 2 µM
  relative viability: 0.931
[20]; first compound 6.325 µM
  relative viability: 0.895
[20]; first compound 20 µM
  relative viability: 0.673
[21]; first compound 0.2 µM
  relative viability: 0.409
[21]; first compound 0.6325 µM
  relative viability: 0.458
[21]; first compound 2 µM
  relative viability: 0.493
[21]; first compound 6.325 µM
  relative viability: 0.38
[21]; first compound 20 µM
  relative viability: 0.396
[22]; first compound 0.2 µM
  relative viability: 0.248
[22]; first compound 0.6325 µM
  relative viability: 0.23
[22]; first compound 2 µM
  relative viability: 0.249
[22]; first compound 6.325 µM
  relative viability: 0.248
[22]; first compound 20 µM
  relative viability: 0.192
